{"source": "patent US20250057828A1", "about": "“COMBINATION OF AN A2-ADRENOCEPTOR SUBTYPE C (ALPHA-2C) ANTAGONIST WITH A NOREPINEPHRINE REUPTAKE INHIBITOR FOR THE TREATMENT OF SLEEP APNEA” (priority 2021, published 2025)", "test_system": "pig model of obstructive sleep apnea (OSA)", "test": "pig model of obstructive sleep apnea (OSA): collapsibility of the upper respiratory tract under negative pressure", "assay_type": "in vivo, German Landrace pigs", "from_the_text": "The therapeutic potential of the combination of an α2-Adrenoceptor subtype C (alpha-2C) antagonists with a muscarinic receptor antagonist according to the present invention in sleep apnea can be assessed preclinically in a pig model of obstructive sleep apnea (OSA).\nUsing negative pressure, it is possible to induce collapse and thus obstruction of the upper respiratory tract in anaesthetized, spontaneously breathing pigs (Wirth K. J. et al., Sleep 36(5) (2013) pp. 699-708).\nGerman Landrace pigs are used for the model. The pigs are anaesthetized and tracheotomized. Two tracheal cannulas are inserted into the trachea, one into the rostral part and the other into the caudal part of the trachea. Using a connection piece, the rostral cannula is connected to a tube to the negative pressure device and to the distal tracheal cannula. The distal tracheal cannula is additionally connected to a tube with an open end to atmosphere via a connection piece that served for free tracheal breathing, circumventing the upper airway. By appropriate opening and clamping of those tubes breathing can be switched from nasal breathing to breathing through the caudal tracheal cannula, circumventing the upper airway, and the (isolated) upper airway can be connected to the negative pressure device, causing airflow in the inspiratory direction.\nAt certain points in time, the collapsibility of the upper respiratory tract is tested by having the pig breathe via the caudal cannula and applying negative pressures of −50, −100 and −150 cm water head (cm H2O) to the upper respiratory tract. This causes the upper respiratory tract to collapse, which manifests itself in an interruption of the airflow and a pressure drop in the tube system. This test is conducted prior to the administration of the test substance and at certain intervals after the administration of the test substance. An appropriately effective test substance can prevent this collapse of the respiratory tract in the inspiratory phase.", "key": {"[1]": {"details": "intravenous bolus 1 mg/kg + infusion 0.275 mg/kg/h for four hours, 0 min"}, "[2]": {"details": "intravenous bolus 1 mg/kg + infusion 0.275 mg/kg/h for four hours, 10 min"}, "[3]": {"details": "intravenous bolus 1 mg/kg + infusion 0.275 mg/kg/h for four hours, 30 min"}, "[4]": {"details": "intravenous bolus 1 mg/kg + infusion 0.275 mg/kg/h for four hours, 60 min"}, "[5]": {"details": "intravenous bolus 1 mg/kg + infusion 0.275 mg/kg/h for four hours, 120 min"}, "[6]": {"details": "intravenous bolus 1 mg/kg + infusion 0.275 mg/kg/h for four hours, 180 min"}, "[7]": {"details": "intravenous bolus 1 mg/kg + infusion 0.275 mg/kg/h for four hours, 240 min"}, "[8]": {"details": "0.01 mg/kg intraduodenal, 0 min"}, "[9]": {"details": "0.01 mg/kg intraduodenal, 30 min"}, "[10]": {"details": "0.01 mg/kg intraduodenal, 60 min"}, "[11]": {"details": "0.01 mg/kg intraduodenal, 90 min"}, "[12]": {"details": "0.01 mg/kg intraduodenal, 120 min"}, "[13]": {"details": "0.01 mg/kg intraduodenal, 150 min"}, "[14]": {"details": "0.01 mg/kg intraduodenal, 180 min"}, "[15]": {"details": "0.01 mg/kg intraduodenal, 240 min"}, "[16]": {"details": "0.01 mg/kg intraduodenal, 270 min"}, "[17]": {"details": "0.01 mg/kg intraduodenal, 300 min"}}}
{"smiles": "CCN(CC)CC#CCOC(=O)C(O)(c1ccccc1)C1CCCCC1", "note": "(stereo not shown) [oxybutynin, Oxybutynin]", "values": [{"measurement": "Percent pigs without collaps −50 cm H2O, %", "setting": "[1]", "result": 0, "unit": "%"}, {"measurement": "Percent pigs without collaps −50 cm H2O, %", "setting": "[2]", "result": 0, "unit": "%"}, {"measurement": "Percent pigs without collaps −50 cm H2O, %", "setting": "[3]", "result": 0, "unit": "%"}, {"measurement": "Percent pigs without collaps −50 cm H2O, %", "setting": "[4]", "result": 0, "unit": "%"}, {"measurement": "Percent pigs without collaps −50 cm H2O, %", "setting": "[5]", "result": 0, "unit": "%"}, {"measurement": "Percent pigs without collaps −50 cm H2O, %", "setting": "[6]", "result": 0, "unit": "%"}, {"measurement": "Percent pigs without collaps −50 cm H2O, %", "setting": "[7]", "result": 0, "unit": "%"}, {"measurement": "Percent pigs without collaps −100 cm H2O, %", "setting": "[1]", "result": 0, "unit": "%"}, {"measurement": "Percent pigs without collaps −100 cm H2O, %", "setting": "[2]", "result": 0, "unit": "%"}, {"measurement": "Percent pigs without collaps −100 cm H2O, %", "setting": "[3]", "result": 0, "unit": "%"}, {"measurement": "Percent pigs without collaps −100 cm H2O, %", "setting": "[4]", "result": 0, "unit": "%"}, {"measurement": "Percent pigs without collaps −100 cm H2O, %", "setting": "[5]", "result": 0, "unit": "%"}, {"measurement": "Percent pigs without collaps −100 cm H2O, %", "setting": "[6]", "result": 0, "unit": "%"}, {"measurement": "Percent pigs without collaps −100 cm H2O, %", "setting": "[7]", "result": 0, "unit": "%"}, {"measurement": "Percent pigs without collaps −150 cm H2O, %", "setting": "[1]", "result": 0, "unit": "%"}, {"measurement": "Percent pigs without collaps −150 cm H2O, %", "setting": "[2]", "result": 0, "unit": "%"}, {"measurement": "Percent pigs without collaps −150 cm H2O, %", "setting": "[3]", "result": 0, "unit": "%"}, {"measurement": "Percent pigs without collaps −150 cm H2O, %", "setting": "[4]", "result": 0, "unit": "%"}, {"measurement": "Percent pigs without collaps −150 cm H2O, %", "setting": "[5]", "result": 0, "unit": "%"}, {"measurement": "Percent pigs without collaps −150 cm H2O, %", "setting": "[6]", "result": 0, "unit": "%"}, {"measurement": "Percent pigs without collaps −150 cm H2O, %", "setting": "[7]", "result": 0, "unit": "%"}, {"measurement": "inhibited upper airway collapsibility at all negative pressures of −50, −100 and −150 cm head (cm H2O) in all pigs", "setting": "intravenous bolus 1 mg/kg followed by infusion of 0,275 mg/kg/h for four hours", "result": "at no time"}]}
{"smiles": "C[C@@H]1CCCN(C2CCN(c3ncc(C(=O)NCc4ncc(F)cc4F)s3)CC2)C1", "note": "[N-[(3,5-difluoropyridin-2-yl)methyl]-2-[(3R)-3-methyl[1,4′-bipiperidin]-1′-yl]-1,3-thiazole-5-carboxamide]", "values": [{"measurement": "inhibited upper airway collapsibility at all negative pressures of −50, −100 and −150 cm head (cm H2O) in all pigs", "setting": "0.01 mg/kg intraduodenal", "result": "at no time point"}, {"measurement": "upper airway collapsibility at the negative pressures of −50 and −100 cm head (cm H2O)", "setting": "0.01 mg/kg intraduodenal, time point 120 min", "result": "inhibited"}, {"measurement": "upper airway collapsibility at the negative pressure of −50 cm head (cm H2O)", "setting": "0.01 mg/kg intraduodenal, time point 150 min", "result": "inhibited"}, {"measurement": "Percent pigs without collaps −50 cm H2O, %", "setting": "[8]", "result": 0, "unit": "%"}, {"measurement": "Percent pigs without collaps −50 cm H2O, %", "setting": "[9]", "result": 0, "unit": "%"}, {"measurement": "Percent pigs without collaps −50 cm H2O, %", "setting": "[10]", "result": 25, "unit": "%"}, {"measurement": "Percent pigs without collaps −50 cm H2O, %", "setting": "[11]", "result": 75, "unit": "%"}, {"measurement": "Percent pigs without collaps −50 cm H2O, %", "setting": "[12]", "result": 100, "unit": "%"}, {"measurement": "Percent pigs without collaps −50 cm H2O, %", "setting": "[13]", "result": 100, "unit": "%"}, {"measurement": "Percent pigs without collaps −50 cm H2O, %", "setting": "[14]", "result": 75, "unit": "%"}, {"measurement": "Percent pigs without collaps −50 cm H2O, %", "setting": "[15]", "result": 50, "unit": "%"}, {"measurement": "Percent pigs without collaps −50 cm H2O, %", "setting": "[16]", "result": 25, "unit": "%"}, {"measurement": "Percent pigs without collaps −50 cm H2O, %", "setting": "[17]", "result": 25, "unit": "%"}, {"measurement": "Percent pigs without collaps −100 cm H2O, %", "setting": "[8]", "result": 0, "unit": "%"}, {"measurement": "Percent pigs without collaps −100 cm H2O, %", "setting": "[9]", "result": 0, "unit": "%"}, {"measurement": "Percent pigs without collaps −100 cm H2O, %", "setting": "[10]", "result": 0, "unit": "%"}, {"measurement": "Percent pigs without collaps −100 cm H2O, %", "setting": "[11]", "result": 75, "unit": "%"}, {"measurement": "Percent pigs without collaps −100 cm H2O, %", "setting": "[12]", "result": 100, "unit": "%"}, {"measurement": "Percent pigs without collaps −100 cm H2O, %", "setting": "[13]", "result": 75, "unit": "%"}, {"measurement": "Percent pigs without collaps −100 cm H2O, %", "setting": "[14]", "result": 50, "unit": "%"}, {"measurement": "Percent pigs without collaps −100 cm H2O, %", "setting": "[15]", "result": 25, "unit": "%"}, {"measurement": "Percent pigs without collaps −100 cm H2O, %", "setting": "[16]", "result": 25, "unit": "%"}, {"measurement": "Percent pigs without collaps −100 cm H2O, %", "setting": "[17]", "result": 0, "unit": "%"}, {"measurement": "Percent pigs without collaps −150 cm H2O, %", "setting": "[8]", "result": 0, "unit": "%"}, {"measurement": "Percent pigs without collaps −150 cm H2O, %", "setting": "[9]", "result": 0, "unit": "%"}, {"measurement": "Percent pigs without collaps −150 cm H2O, %", "setting": "[10]", "result": 0, "unit": "%"}, {"measurement": "Percent pigs without collaps −150 cm H2O, %", "setting": "[11]", "result": 0, "unit": "%"}, {"measurement": "Percent pigs without collaps −150 cm H2O, %", "setting": "[12]", "result": 50, "unit": "%"}, {"measurement": "Percent pigs without collaps −150 cm H2O, %", "setting": "[13]", "result": 25, "unit": "%"}, {"measurement": "Percent pigs without collaps −150 cm H2O, %", "setting": "[14]", "result": 0, "unit": "%"}, {"measurement": "Percent pigs without collaps −150 cm H2O, %", "setting": "[15]", "result": 0, "unit": "%"}, {"measurement": "Percent pigs without collaps −150 cm H2O, %", "setting": "[16]", "result": 0, "unit": "%"}, {"measurement": "Percent pigs without collaps −150 cm H2O, %", "setting": "[17]", "result": 0, "unit": "%"}]}
